Source: PMC11243039, “Antimicrobial, Antioxidant, and Antityrosinase Activities of Morina persica L. and Its Isolated Compounds” (Molecules, 2024)
Converted amounts (≈) assume the structure as drawn.

Molecular target: T1, mushroom tyrosinase
T1 construct: gene PPO3; native mushroom enzyme preparation
Assay: absorbance at […] nm, L-DOPA oxidation (modified Masuda method)
Type: biochemical
Conditions: L-DOPA substrate, phosphate buffer pH 6.8, 23 °C, 10 min preincubation

IC50 [µg/mL]	Structure (SMILES)
297.9 ± 1.2 (≈ 664 µM)	O=c1c(O[C@@H]2O[C@H](CO)[C@@H](O)[C@H](O)[C@H]2O)c(-c2ccc(O)cc2)oc2cc(O)cc(O)c12 [MP-1, Kaempferol-3-O-β-glucopyranoside]
115.2 ± 0.8 (≈ 189 µM)	C[C@@H]1O[C@@H](OC[C@H]2O[C@@H](Oc3c(-c4ccc(O)c(O)c4)oc4cc(O)cc(O)c4c3=O)[C@H](O)[C@@H](O)[C@@H]2O)[C@H](O)[C@H](O)[C@H]1O [MP-2, Quercetin-3-O-rutinoside]
